In paper PMC3463139 (Journal of medicinal chemistry, 2012):
Read-outs that look alike come from different tables or passages of the source. Blank lines part the entries; values can stand above or below the compound they belong to.

Columns and labels:
hA1AR [1] = molecular target: T1, hA1AR (Homo sapiens, UniProt P30542); assay: Radioligand binding at hA1AR; conditions: for AR subtype selectivity in binding (in words): A1, A2A and A3 ARs compared
T1 sequence (P30542 1-326): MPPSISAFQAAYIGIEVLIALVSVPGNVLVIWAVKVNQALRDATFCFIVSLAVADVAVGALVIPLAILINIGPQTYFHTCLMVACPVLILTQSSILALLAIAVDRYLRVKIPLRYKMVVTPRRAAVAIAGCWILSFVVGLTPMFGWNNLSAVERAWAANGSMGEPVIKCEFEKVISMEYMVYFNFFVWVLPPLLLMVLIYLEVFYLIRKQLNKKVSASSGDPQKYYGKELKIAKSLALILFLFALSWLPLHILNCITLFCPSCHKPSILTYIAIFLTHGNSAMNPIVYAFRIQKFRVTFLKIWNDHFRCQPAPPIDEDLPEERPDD

mice [2] = assay: 6 Hz minimal clonic seizure test; format: in vivo
hA1AR [3] = molecular target: T1, hA1AR; conditions: at 10 μM; relative to 44a (100%); ref Tosh et al.[20] or Gao et al. [21]; cited from earlier work
mice [4] = assay: Corneal kindled mouse model of partial seizures; format: in vivo; conditions: i.p.
hA1AR [5] = molecular target: T1, hA1AR; format: cell-based; conditions: for Agonist efficacy at A1AR (in words): cyclic AMP assay, 10 μM
mice [6] = assay: Maximal electroshock; format: in vivo; conditions: for MES model, number of animals protected from convulsions: qualitative
mice [7] = assay: Subcutaneous metrazol; format: in vivo; conditions: for scMET model, number of animals protected from convulsions: qualitative
hA3AR = molecular target: T2, hA3AR (Homo sapiens, UniProt P0DMS8); assay: Radioligand binding at hA3AR; conditions: replacement of 2-Cl with 2-H
T2 sequence (P0DMS8 1-318): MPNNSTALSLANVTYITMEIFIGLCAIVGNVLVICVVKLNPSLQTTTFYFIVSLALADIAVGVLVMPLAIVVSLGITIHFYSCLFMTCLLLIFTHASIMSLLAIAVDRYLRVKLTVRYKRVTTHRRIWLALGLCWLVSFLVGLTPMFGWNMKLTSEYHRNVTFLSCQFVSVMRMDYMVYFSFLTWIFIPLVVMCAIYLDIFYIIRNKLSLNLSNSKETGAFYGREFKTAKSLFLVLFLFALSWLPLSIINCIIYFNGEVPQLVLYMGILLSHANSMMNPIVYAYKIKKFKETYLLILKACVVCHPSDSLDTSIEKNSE

in vivo = conditions: male, CF No 1 albino, mouse, ip
rat A1AR = conditions: read-out: Kd at rat A1AR; cited from earlier work

SMILES: CC(C)[C@@H](Nc1nc(Cl)nc2c1ncn2[C@H]1[C@H](O)[C@H](O)[C@@H]2C[C@@H]21)C1CC1 [Compound 14, (1R,2R,3S,4R,5S)-4-(2-Chloro-6-((R)-1-cyclopropyl-2-methyl-propylamino)-9H-purin-9-yl)bicyclo[3.1.0]hexane-2,3-diol]
AR subtype selectivity in binding (in words) (hA1AR [1]): moderately selective for the A1AR

SMILES: CC(C)[C@H](Nc1nc(Cl)nc2c1ncn2[C@H]1[C@H](O)[C@H](O)[C@@H]2C[C@@H]21)C1CC1 [Compound 15, (1R,2R,3S,4R,5S)-4-(2-Chloro-6-((S)-1-cyclopropyl-2-methyl-propylamino)-9H-purin-9-yl)bicyclo[3.1.0]hexane-2,3-diol]
AR subtype selectivity in binding (in words) (hA1AR [1]): moderately selective for the A1AR

SMILES: O[C@@H]1[C@H](O)[C@@H]2C[C@@H]2[C@H]1n1cnc2c(N[C@@H](c3ccccc3)C3CC3)nc(Cl)nc21 [Compound 20, (1R,2R,3S,4R,5S)-4-(2-Chloro-6-((R)-cyclopropylphenylmethylamino)-9H-purin-9-yl)bicyclo[3.1.0]hexane-2,3-diol]
AR subtype selectivity in binding (in words) (hA1AR [1]): bound weakly at the three ARs
Agonist efficacy at A1AR (in words) (hA1AR [5]): did not activate the A1AR

SMILES: O[C@@H]1[C@H](O)[C@@H]2C[C@@H]2[C@H]1n1cnc2c(N[C@H](c3ccccc3)C3CC3)nc(Cl)nc21 [Compound 21, (1R,2R,3S,4R,5S)-4-(2-Chloro-6-((S)-cyclopropylphenylmethylamino)-9H-purin-9-yl)bicyclo[3.1.0]hexane-2,3-diol]
AR subtype selectivity in binding (in words) (hA1AR [1]): bound weakly at the three ARs

SMILES: OC[C@H]1O[C@@H](n2cnc3c(NC4CCCC4)nc(Cl)nc32)[C@H](O)[C@@H]1O [Compound 44b, 2-chloro-N^6-cyclopentyladenosine, reference compound]
TD50 at 1 h (in vivo): 0.84 mg/kg
MES model, number of animals protected from convulsions (mice [6]; 1 mg/kg i.p.): 1 out of 4 at (1 mg/kg)
scMET model, number of animals protected from convulsions (mice [7]; 1 mg/kg i.p.): 1 out of 4 (1 mg/kg)

SMILES: CCNC(=O)[C@H]1O[C@@H](n2cnc3c(N)ncnc32)[C@H](O)[C@@H]1O [Compound 45, 5′-N-ethylcarboxamidoadenosine, reference compound]
% Inhibition, cyclic AMP, A1 (maximal efficacy) (hA1AR [5]; at 10 μM, relative to effect (100%) of full agonist 44a at 10 μM, CHO cells, n = 3–5): 100±15%
Agonist efficacy at A1AR (in words) (hA1AR [5]): full agonist

SMILES: NCCNC(=O)Cc1ccc(NC(=O)Cc2ccc(Nc3ncnc4c3ncn4[C@@H]3O[C@H](CO)[C@@H](O)[C@H]3O)cc2)cc1 [Compound 46, N^6-[4-[[[4-[[[(2-Aminoethyl)amino]carbonyl]methyl]anilino]carbonyl]methyl]phenyl]adenosine, reference compound]
MES model, number of animals protected from convulsions (mice [6]; 2 mg/kg i.p.): 4 out of 8 (2mg/kg)
scMET model, number of animals protected from convulsions (mice [7]; 1 mg/kg i.p.): 5 out of 8 (1 mg/kg)

SMILES: C[C@H](CSc1nc2ccccc2s1)Nc1nc(Cl)nc2c1ncn2[C@@H]1O[C@H](CO)[C@@H](O)[C@H]1O [NNC-21-0136, N^6-[R-(2-benzothiazolyl)thio-2-propyl]-2-chloroadenosine]
Kd (rat A1AR): 1.16 nM

Further lines, with some results ahead:

AR subtype selectivity in binding (in words) (hA1AR [1]): nonselective
SMILES: O[C@@H]1[C@H](O)[C@@H]2C[C@@H]2[C@H]1n1cnc2c(NCC(C3CC3)C3CC3)nc(Cl)nc21 [Compound 7, (1R,2R,3S,4R,5S)-4-(2-Chloro-6-(2,2-dicyclopropylethylamino)-9H-purin-9-yl)bicyclo[3.1.0]hexane-2,3-diol]

Agonist efficacy at A1AR (in words) (hA1AR [5]): full agonist
SMILES: O[C@@H]1[C@H](O)[C@@H]2C[C@@H]2[C@H]1n1cnc2c(NC(C3CC3)C3CC3)nc(Cl)nc21 [Compound 10]
6 Hz model, animals protected (mice [2]; 30 mg/kg i.p. (highest dose tested)): 7 out of 8
6 Hz model, mice protected (mice [2]; […] i.p.): 4 out of 8
Response in 6 Hz model (in words) (mice [2]; mice, i.p.): active
% Inhibition, cyclic AMP, A1 (maximal efficacy) (hA1AR [3]): 80–100%
Corneal kindled mouse model EC50 (±SE) (mice [4]; at 1 h post injection): 1.79 ± 0.71 mg/kg
Response in corneal kindling model (in words) (mice [4]; mice): active
MES model, number of animals protected from convulsions (mice [6]; 3 mg/kg i.p.): 1 out of 4 (3 mg/kg)
Response in MES model (in words) (mice [6]; i.p.): inactive
scMET model, number of animals protected from convulsions (mice [7]; 3 mg/kg i.p.): No protection (3 mg/kg)
Response in scMET model (in words) (mice [7]; i.p.): inactive

inhibition at 10 µM (hA1AR [1]; read-out: % inhibition of radioligand binding, A1, at 10 μM, [3H]R-PIA, CHO cells): < 50%
SMILES: O[C@@H]1[C@H](O)[C@@H]2C[C@@H]2[C@H]1n1cnc2c(NC(C3CCCC3)C3CCCC3)nc(Cl)nc21 [Compound 11, (1R,2R,3S,4R,5S)-4-(2-Chloro-6-(dicyclopentylmethylamino)-9H-purin-9-yl)bicyclo[3.1.0]hexane-2,3-diol]

Increase of affinity at the A3AR relative to compound 10 (hA3AR): 28 fold
SMILES: O[C@@H]1[C@H](O)[C@@H]2C[C@@H]2[C@H]1n1cnc2c(NC(C3CC3)C3CC3)ncnc21 [Compound 37a]

AR subtype selectivity in binding (in words) (hA1AR [1]): nonselective
SMILES: NNc1nc(NC(C2CC2)C2CC2)c2ncn([C@H]3[C@H](O)[C@H](O)[C@@H]4C[C@@H]43)c2n1 [Compound 40]

AR subtype selectivity in binding (in words) (hA1AR [1]): weak nonselective
SMILES: COC(=O)c1cnn(-c2nc(NC(C3CC3)C3CC3)c3ncn([C@H]4[C@H](O)[C@H](O)[C@@H]5C[C@@H]54)c3n2)c1 [Compound 42]

AR subtype selectivity in binding (in words) (hA1AR [1]): weak nonselective
SMILES: O=C(O)c1cnn(-c2nc(NC(C3CC3)C3CC3)c3ncn([C@H]4[C@H](O)[C@H](O)[C@@H]5C[C@@H]54)c3n2)c1 [Compound 43]
